Entries after “also recorded” stand apart in the source; their conditions may differ. Like-named read-outs stand apart in the source and are kept apart here.
Tests used:
CB2 cannabinoid receptor [1] = target: T1, CB2 cannabinoid receptor (Mus musculus, UniProt P47936); experiment: Competitive [3H]CP55,940 binding assay, mouse spleen membranes; conditions: rCB1 versus mCB2 Ki values
CB2 cannabinoid receptor [2] = target: T1, CB2 cannabinoid receptor; conditions: earlier work on adamantyl substituents at C3 of Δ8-THC; cited from earlier work

T1 sequence (P47936 whole entry): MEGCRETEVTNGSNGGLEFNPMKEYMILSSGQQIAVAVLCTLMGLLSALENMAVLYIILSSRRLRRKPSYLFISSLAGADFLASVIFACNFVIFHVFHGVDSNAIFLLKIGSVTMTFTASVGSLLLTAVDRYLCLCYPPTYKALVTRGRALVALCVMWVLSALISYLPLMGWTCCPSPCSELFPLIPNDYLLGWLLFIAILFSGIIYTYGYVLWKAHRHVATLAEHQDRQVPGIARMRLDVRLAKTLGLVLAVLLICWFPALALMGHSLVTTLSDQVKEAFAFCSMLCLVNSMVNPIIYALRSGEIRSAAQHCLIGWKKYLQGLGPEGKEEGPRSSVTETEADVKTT

**Q.** Which “CB1/CB2 receptor subtype selectivity (in words)” value (CB2 cannabinoid receptor [1]) does the source give for CC1=CC[C@@H]2[C@@H](C1)c1c(ccc(C[C@H]3C[C@@H]4CC[C@]3(C)C4(C)C)c1O)OC2(C)C [Compound 8c, (6aR-trans)-3-(endo-1′,7′,7′-Trimethylbicyclo[2.2.1]hept-2′-ylmethyl)-6a,7,10,10a-tetrahydro-6,6,9-trimethyl-6H-dibenzo[b,d]pyran-1-ol] here?
**A.** Its value is “nonselective; also recorded: complete loss of subtype selectivities”.

**Q.** Which “CB1/CB2 receptor subtype selectivity (in words)” value (CB2 cannabinoid receptor [2]) does the source give for CC1=CCC2C(C1)c1c(O)cc(C3C4CC5CC(C4)CC3C5)cc1OC2(C)C (centres unmarked) [adamant-2′-yl analog] here?
**A.** The value was “CB2 selective”.

**Q.** Which “CB1/CB2 receptor subtype selectivity (in words)” value (CB2 cannabinoid receptor [1]) does the source give for CC1=CC[C@@H]2[C@@H](C1)c1c(O)cc([C@H]3C[C@@H]4CC[C@]3(C)C4(C)C)cc1OC2(C)C [Compound 8a, (6aR-trans)-3-(endo-1′,7′,7′-Trimethylbicyclo[2.2.1]hept-2′-yl)-6a,7,10,10atetrahydro-6,6,9-trimethyl-6H-dibenzo[b,d]pyran-1-ol] here?
**A.** Its value is “no subtype selectivity”.

**Q.** With CC1=CC[C@@H]2[C@@H](C1)c1c(O)cc(C34CC5CC(CC(C5)C3)C4)cc1OC2(C)C [Compound 11, 3-(adamant-1′-yl)-Δ^8-THC] as the compound, how does the “CB1/CB2 receptor subtype selectivity (in words)” value (CB2 cannabinoid receptor [2]) read?
**A.** Its value is “substantial CB1 selectivity”.

**Q.** With CC1=CC[C@@H]2[C@@H](C1)c1c(ccc(C[C@@H]3C[C@@H]4CC[C@]3(C)C4(C)C)c1O)OC2(C)C [Compound 8d, (6aR-trans)-3-(exo-1′,7′,7′-Trimethylbicyclo[2.2.1]hept-2′-ylmethyl)-6a,7,10,10a-tetrahydro-6,6,9-trimethyl-6H-dibenzo[b,d]pyran-1-ol] as the compound, how does the “CB1/CB2 receptor subtype selectivity (in words)” value (CB2 cannabinoid receptor [1]) read?
**A.** Its value is “nonselective; also recorded: complete loss of subtype selectivities”.
